Assay type in all cases: cell-based
Test [1] deals with T1, IKCa channel (KCa3.1) (Homo sapiens, UniProt O15554).
T1 construct: gene KCNN4; native channel in Jurkat T-lymphocytes
Description: cell-attached single-channel recording; […] DCEBIO raised open probability in presence of MDZ.

The target of test [2] is T2, KV1.3 (delayed-rectifier K+ channel, IK(DR)) (Homo sapiens, UniProt P22001).
T2 construct: gene KCNA3; native channel in Jurkat T-lymphocytes
Description: whole-cell patch clamp of native IK(DR), concentration-response (kinetic KD […]). (In general: In patch-clamp work, channel activity is measured electrically.)

In test [3] the target is T1, IKCa channel (KCa3.1). Description: cell-attached single-channel recording; open probability decreased at […]. The following applies: read-out: % decrease of open probability at 30 μM.

T1 sequence (O15554 whole entry): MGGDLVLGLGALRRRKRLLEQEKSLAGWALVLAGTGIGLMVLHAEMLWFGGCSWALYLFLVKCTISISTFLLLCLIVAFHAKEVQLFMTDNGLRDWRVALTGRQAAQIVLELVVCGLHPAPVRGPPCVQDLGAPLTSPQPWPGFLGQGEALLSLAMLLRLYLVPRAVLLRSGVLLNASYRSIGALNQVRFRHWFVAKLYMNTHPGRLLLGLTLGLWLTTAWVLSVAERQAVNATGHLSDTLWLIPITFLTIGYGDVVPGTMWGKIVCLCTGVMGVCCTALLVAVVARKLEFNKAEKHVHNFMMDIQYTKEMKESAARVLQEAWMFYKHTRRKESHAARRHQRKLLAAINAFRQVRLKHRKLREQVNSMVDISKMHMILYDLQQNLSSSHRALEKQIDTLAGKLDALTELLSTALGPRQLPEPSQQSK
T2 sequence (P22001 whole entry): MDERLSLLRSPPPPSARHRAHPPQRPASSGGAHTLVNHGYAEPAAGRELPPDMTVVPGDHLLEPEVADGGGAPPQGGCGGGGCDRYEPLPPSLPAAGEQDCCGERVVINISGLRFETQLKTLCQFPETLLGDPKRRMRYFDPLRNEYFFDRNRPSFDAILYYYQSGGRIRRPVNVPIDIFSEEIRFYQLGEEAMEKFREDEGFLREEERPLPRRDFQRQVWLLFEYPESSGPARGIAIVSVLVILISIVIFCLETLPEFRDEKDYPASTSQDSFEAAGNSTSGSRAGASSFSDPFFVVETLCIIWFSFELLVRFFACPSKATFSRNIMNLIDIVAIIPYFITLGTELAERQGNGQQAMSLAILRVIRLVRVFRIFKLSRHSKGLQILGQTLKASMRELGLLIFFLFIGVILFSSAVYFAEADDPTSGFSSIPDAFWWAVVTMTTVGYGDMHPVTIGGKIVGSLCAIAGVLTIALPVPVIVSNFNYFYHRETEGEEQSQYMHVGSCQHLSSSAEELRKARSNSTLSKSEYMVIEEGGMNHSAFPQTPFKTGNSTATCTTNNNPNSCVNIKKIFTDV

For the compound `CCn1c(=O)[nH]c2cc(Cl)c(Cl)cc21` [DCEBIO, 5,6-dichloro-1-ethyl-1,3-dihydro-2H-benzimidazol-2-one], the “cell-attached single-channel recording; 3 μM DCEBIO raised open probability in p” value in test [1] is recorded as 0.121 ± 0.006 open probability (with 3 µM DCEBIO plus 30 µM MDZ). In the case of `Cc1ncc2n1-c1ccc(Cl)cc1C(c1ccccc1F)=NC2` [MDZ, 8-chloro-6-(2-fluorophenyl)-1-methyl-4H-imidazo [1,5-a][1,4] benzodiazepine], half-maximal inhibition in test [2] (IC50) required 5.87 µM. In addition, the inhibition at 30 µM in test [3] turned out to be 85.7 ± 2.5%.

As usually defined, the IC50 is the concentration needed to halve the response being measured. Low readings indicate inhibition by little substance, high ones a need for much substance.

The values are drawn from paper PMC8267671, “Midazolam’s Effects on Delayed-Rectifier K^+ Current and Intermediate-Conductance Ca^2+-Activated K^+ Channel in Jurkat T-lymphocytes” (International Journal of Molecular Sciences, 2021).
